We go through one molecule from publication PMC4452251, “Characterization of a Thioredoxin-1 Gene from Taenia solium and Its Encoding Product” (BioMed Research International, 2015).

Each structure is given as a SMILES string.

The test addresses T1, rTsTrx-1 (Taenia solium thioredoxin-1) (Taenia solium, UniProt A0A0A1E9C2).
T1 construct: gene Trx; full-length coding region, 107 residues, 11,579 Da, active site CGPC; N-terminal six-histidine tag (pRSETB), no tag removal stated
T1 sequence (A0A0A1E9C2 1-107): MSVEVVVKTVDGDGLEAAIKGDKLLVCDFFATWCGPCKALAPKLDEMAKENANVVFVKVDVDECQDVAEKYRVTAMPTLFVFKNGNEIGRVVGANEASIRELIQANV
The test is described as follows: DTT/insulin reduction turbidity assay at […] nm. Type of test: biochemical. As to conditions: 20 ug enzyme (1.5 uM) preincubated with MG 30 min at 37 C; insulin 160 uM, 1 mM DTT, 2 mM EDTA, potassium phosphate pH 6.5.

With `CC(=O)C=O` [MG, methylglyoxal], the “% decrease of activity at 3 mM” value was 25%.
